Key:
[1] = system: Endotoxin induced shock and mortality; test: Endotoxin induced shock and mortality in mice: low dose, chronic mouse endotoxemia; type: in vivo, Male Balb/c mice; conditions: dose 10 mg/kg i.p.
Text: (§1) Endotoxin administration produces a shock-like state characterized by vascular permeability changes, hypotension, neutropenia, thrombocytopenia,multiple organ damage and death. The major mediators released after endotoxin injection are TNF (tumor necrosis factor), PAF (platelet activating factor) and […] (interleukin I). PAF administration mimics the signs and symptoms of endotoxin induced shock and death and endotoxin also induces the release of PAF. Therefore, the effects of endotoxin should be blocked with a PAF antagonist.
(§2) Male Balb/c mice (approximately 20 g) are obtained from Charles River Laboratories and used after a one-two week acclimation period. Animals are given (ip) test compound dissolved in saline or water (sonicated and heated) at different time intervals prior to and after the ip injection of endotoxin (usually 2 hours before LPS endotoxin, and 3-4 hours after). Sigma E. Coli endotoxin, 0111:B4, phenol extraction, catalog #L2630 is used for these studies.
For the chronic endotoxin shock model, a lower dose of endotoxin is administered (generally 15 to 20 mg/kg i.p). This dose gives an LD80 in two to four days following LPS administration. Test compounds are given 2 hours before LPS and 3-4 hours after on the first day, followed by 3 or 4 consecutive days of BID dosing. The number of survivors in each group is recorded each day for a period of 5 to 7 days.
Effect of Compounds Given i.p. in Low Dose, Chronic Mouse Endoxemia

PAF induced lethality = PAF induced lethality in mice; type: in vivo; conditions: PAF 150 μg/kg IV
Description: PAF given I.V. to mice causes an immediate hypotensive shock leading to death in 1 hour or less. Compounds are given intraperitoneally or P.O. at various times before the PAF challenge. Animals alive after 2 hours are counted and the activity of test compounds expressed as % survival corrected for any control (saline treated) animals which survived the PAF challenge.
Effect of Compound Given I.V. or P.O. in Protecting
Mice from a Lethal Challenge of PAF^a
^a lethal challenge of PAF is 150 μg/kg IV.

[2] = system: Endotoxin induced shock and mortality; test: Endotoxin induced shock and mortality in mice: high dose acute mouse endotoxemia; type: in vivo, Male Balb/c mice; conditions: administered ip prior to a lethal ip injection of endotoxin
Text: as §1, §2
This LD value is approximately 50 mg/kg i.p. The number of survivors in each group (control or treated with test compound) is recorded after 24, 48 or 72 hours and the treated groups (receiving test compound and endotoxin) are compared with the untreated, control group (receiving endotoxin only) or saline control (receiving saline and endotoxin).
Effect of Compounds Given I.P. in High Dose Acute Mouse Endotoxemia […]

PAF receptor = target: T1, PAF receptor (Oryctolagus cuniculus, UniProt G1TEI7); test: Platelet Activating Factor antagonism in vitro: inhibition of PAF induced platelet aggregation in rabbit platelet rich plasma; type: cell-based, rabbit (New Zealand White)
T1 construct: centrifuged at 800 rpm for 10-15 minutes at room temperature to recover the platelet rich plasma (PRP); endogenous in cells; host or cells: platelets in citrated platelet rich plasma from male New Zealand White rabbits (Oryctolagus cuniculus)
Description: Test compounds are evaluated as PAF receptor antagonists in vitro by measuring inhibition of PAF (platelet activating factor) induced platelet aggregation. Platelet aggregation is measured by a modification of the method described in […], et. al., J. Med. Chem., 27 1174, 1984. […] All syringes and pipets are plastic. The blood is gently mixed and immediately centrifuged at 800 rpm for 10-15 minutes at room temperature to recover the platelet rich plasma (PRP). Platelet poor plasma (PPP) is prepared by centrifuging PRP at 2800 rpm for 10 minutes at room temperature. Dilutions (1:3000) of PRP in Isoton® diluent are made and platelet counts are determined on a Coulter Thrombocounter which is standardized with platelet reference standards (Interscience Platelet Control, Portland, Oreg.). PRP platelet counts are adjusted to approximately 400,000-500,000 platelets/μl by the addition of PPP. L-PAF (Platelet Activating Factor) is obtained from Calbiochem. […] All solutions are made up in plastic tubes, stored on ice and protected from heat and light. Solutions are prepared fresh or frozen at -20° C. and used within 48 hours. Incubation mixtures consisted of 400 μl PRP, 50 μl of saline diluent or test compound and 50 μl of PAF agonist. More specifically, 400 μl of PRP is stabilized in a cuvette for 1-2 minutes at 37° C. in the aggregometer to achieve a stable baseline, then 50 μl of saline or test compound is added and incubated for 5 minutes before addition of the challenge concentration of PAF. A submaximal concentration is determined from the dose response curve for PAF for that experiment. In general, the challenge concentration is 5E-8 or IE-7M. Aggregation is monitored for 5 minutes. Samples containing test compound or diluent are run simultaneously for comparison. Test compounds are initially evaluated at a screening concentration of 1E-5M. […] The recording equipment consists of a dual channel Chronolog aggregometer connected to a dual channel 10MV full scale deflection Omniscribe chart recorder (Houston Instruments). The chart recorder is calibrated daily with the use of a suspension of Bio-Rad latex beads (S-X 12 400 mesh) which has a density slightly greater than rabbit PRP. […] These limits defined a full scale deflection. The aggregation traces are analyzed by a digitizing method (C. Kohler and B. Zoltan, J. Pharm. Methods, 12, 113, 1984) with x, y coordinate data stored in a computer file. A suitable program computes parameters of interest such as the magnitude of aggregation. | ^a dose of compound that gives the indicated % inhibition. | ^b the % inhibition of PAF induced platelet aggregation. | ^c the molar concentration of compound that will inhibit 50% of the | platelet aggretation induced by PAF given at the indicated PAF challenge | concentration.

T1 sequence (G1TEI7 1-342): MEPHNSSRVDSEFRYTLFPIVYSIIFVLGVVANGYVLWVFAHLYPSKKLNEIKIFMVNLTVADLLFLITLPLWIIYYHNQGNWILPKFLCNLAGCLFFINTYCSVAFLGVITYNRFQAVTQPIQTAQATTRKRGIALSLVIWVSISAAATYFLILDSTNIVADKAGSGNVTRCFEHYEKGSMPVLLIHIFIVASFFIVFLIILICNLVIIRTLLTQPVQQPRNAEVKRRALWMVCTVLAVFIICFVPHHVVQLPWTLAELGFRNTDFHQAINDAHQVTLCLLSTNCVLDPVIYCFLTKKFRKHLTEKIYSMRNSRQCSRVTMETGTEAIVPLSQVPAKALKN

CCCCCCCCCCCCCCOc1cccc(CC(=O)Nc2cccc(C[n+]3csc(C)c3)c2)c1.[Br-] [5-Methyl-3-[[3-[[[3-(tetradecyloxy)phenyl]acetyl]amino]phenyl]methyl]thiazolium bromide]
% Survival ([1]; day 0): 100%
No Surv./tot. ([1]; day 0): 30/30
% Survival ([1]; day 1): 100%
No Surv./tot. ([1]; day 1): 30/30
% Survival ([1]; day 2): 63%
No Surv./tot. ([1]; day 2): 19/30
% Survival ([1]; day 3): 46%
No Surv./tot. ([1]; day 3): 14/30
% Survival ([1]; day 4): 43%
No Surv./tot. ([1]; day 4): 13/30
% Survival ([1]; day 5): 43%
No Surv./tot. ([1]; day 5): 12/30
No Surv./tot. ([1]; day 6): 12/30
% Survival ([1]; day 7): 43%
No Surv./tot. ([1]; day 7): 12/30
% Survival (PAF induced lethality; P.O. 5 mg/kg): 40%
% Survival (PAF induced lethality; P.O. 20 mg/kg): 59%
activity against lethal ip injection of endotoxin [2]: did show some activity
% INH (inhibition of PAF induced platelet aggregation) (PAF receptor; dose .00001 M, PAF chall conc 5E-9 M): 100.0%
PAF antagonism (in words) (PAF receptor; in vitro platelet aggregation studies): known to be a PAF antagonist
